Patent US7183061B2, “Method of expressing Heliothis ecdysone receptor fusion protein” (Syngenta Limited, priority 1996, dated 2007)

Tested on: glucocorticoid receptor
Assay: Maize protoplast GUS reporter assay with pMF6HR1PAT (GR) and p221.9GRE6
Assay type: cell-based, Human
Conditions: maize protoplasts, reporter plus effector, concentration not given
Source text: The glucocorticoid receptor DNA for the Maize transient expression construct was produced via the polymerase chain reaction (PCR) of Human Fibrosarcoma cDNA (HT1080 cell line, ATCC#CC1121) library (Clontech see Hollenberg et al., 1985). The PCR approach taken was to amplify the 2.7 kb fragment encoding the glucocorticoid receptor in two segments. The first segment entails the N-terminal end up to and including the DNA binding domain while the second fragment begins with the hinge region (amino acid 500) thought to the end of the reading frame. Thus, the PCR primer for the N-terminal end segment was designed to contain an EcoRI site and the Kozak consensus sequence for translation initiation: GREcoRI 5′ […] 3′ (SEQ ID NO: 32).
The 2.7 kb EcoRI fragment was subcloned into the vector pMF6PAT EcoRI resulting in pMF6HGIPAT (FIG. 10).
Two reporter plasmids were made by inserting the into p221.9 or p221.10 BamHI/HindIII vectors two pairs or oligonucleotides containing six copies of the glucocorticoid response element (GRE). […]
Protoplasts were isolated from a maize suspension culture derived from BE70×A188 embryogenic callus material, which was maintained by subculturing twice weekly in MS0.5mod. […] The pellet was resuspended in wash buffer and the protoplasts were counted. […] Protein concentrations of tissue homogenates were determined by the Bio-Rad protein assay (Bradford, 1976). […]

CC(C)CC[C@@H](O)[C@](C)(O)[C@H]1CC[C@@]2(O)C3=CC(=O)[C@]4(O)C[C@@H](O)[C@@H](O)C[C@]4(C)[C@H]3[C@H](O)C[C@]12C [Muristerone A]
induced levels of expression: does not lead to induced levels of expression
